# In patent US8163793B2, “Proline derivatives” (Hoffman-La Roche Inc., priority 2009, dated 2012):
# What was measured:
# [1] = target: Cat L (UniProt P07711); assay: Cathepsin enzyme inhibition assay (fluorogenic peptide substrate Z-Val-Val-Arg-AMC), Cathepsin L; format: biochemical, human and mouse; conditions: enzyme 1 nM, substrate 20 μM, pH 6.5; read-out: CatL IC50
# Method in brief: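 Fluorogenic cleavage of Z-Val-Val-Arg-AMC (20 μM) by 1 nM Cat L was monitored at ex 360/em 465 nm for 20 min, the linear phase. The buffer was 100 mM potassium phosphate pH 6.5 with 5 mM EDTA and DTT. IC50 values were derived by standard methods, in μM.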
# [2] = target: Cathepsin S (UniProt P25774); assay: Cathepsin enzyme inhibition assay (fluorogenic peptide substrate Z-Val-Val-Arg-AMC), Cathepsin S; format: biochemical, human and mouse; conditions: enzyme 1 nM, substrate 20 μM, pH 6.5; read-out: CatS IC50
# Method in brief: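 Compounds were combined with 1 nM human or mouse enzyme, and substrate then started the reaction. The buffer was potassium phosphate (100 mM, pH 6.5) containing EDTA-Na 5 mM, Triton X-100 0.001% and […] 5 mM.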
SMILES,IC50 [1] [nM],IC50 [2] [nM]
"N#CC1(NC(=O)[C@@H]2C[C@@H](S(=O)(=O)c3ccccc3Cl)CN2C(=O)C2(c3ccc(OC(F)(F)F)cc3)CC2)CC1 [Example 281, (2S,4R)-4-(2-Chloro-benzenesulfonyl)-1-[1-(4-trifluoromethoxy-phenyl)-cyclopropanecarbonyl]-pyrrolidine-2-carboxylic acid (1-cyano-cyclopropyl)-amide]",145,0.28
"CC(C)(C(=O)N1C[C@H](S(=O)(=O)c2ccccc2Cl)C[C@H]1C(=O)NC1(C#N)CC1)c1ccc(Cl)cc1 [Example 282, (2S,4R)-4-(2-Chloro-benzenesulfonyl)-1-[2-(4-chloro-phenyl)-2-methyl-propionyl]pyrrolidine-2-carboxylic acid (1-cyano-cyclopropyl)-amide]",270,0.24
"N#CC1(NC(=O)[C@@H]2C[C@@H](S(=O)(=O)c3ccccc3Cl)CN2C(=O)C2(c3ccc(Cl)cc3)CCC2)CC1 [Example 283, (2S,4R)-4-(2-Chloro-benzenesulfonyl)-1-[1-(4-chloro-phenyl)-cyclobutanecarbonyl]-pyrrolidine-2-carboxylic acid (1-cyano-cyclopropyl)-amide]",24,0.12
"N#CC1(NC(=O)[C@@H]2C[C@@H](S(=O)(=O)c3ccccc3Cl)CN2C(=O)C2(c3ccc(Cl)c(Cl)c3)CC2)CC1 [Example 284, (2S,4R)-4-(2-Chloro-benzenesulfonyl)-1-[1-(3,4-dichloro-phenyl)-cyclopropanecarbonyl]-pyrrolidine-2-carboxylic acid (1-cyano-cyclopropyl)-amide]",463,0.07
"N#CC1(NC(=O)[C@@H]2C[C@@H](S(=O)(=O)c3ccccc3Cl)CN2C(=O)C2(c3ccncc3)CC2)CC1 [Example 285, (2S,4R)-4-(2-Chloro-benzenesulfonyl)-1-(1-pyridin-4-yl-cyclopropanecarbonyl)-pyrrolidine-2-carboxylic acid (1-cyano-cyclopropyl)-amide]",2600,0.227
"N#CC1(NC(=O)[C@@H]2C[C@@H](S(=O)(=O)c3ccc(OCC(F)(F)F)cc3Cl)CN2C(=O)C2(c3ccccc3)CCOCC2)CC1 [Example 287, (2S,4R)-4-[2-Chloro-4-(2,2,2-trifluoro-ethoxy)-benzenesulfonyl]-1-(4-phenyl-tetrahydro-pyran-4-carbonyl)-pyrrolidine-2-carboxylic acid (1-cyano-cyclopropyl)-amide]",3170,0.175
"Cn1cc(-c2ccc(C3(C(=O)N4C[C@H](S(=O)(=O)c5ccc(OCC(F)(F)F)cc5Cl)C[C@H]4C(=O)NC4(C#N)CC4)CC3)cc2)cn1 [Example 288, (2S,4R)-4-[2-Chloro-4-(2,2,2-trifluoro-ethoxy)-benzenesulfonyl]-1-{1-[4-(1-methyl-1H-pyrazol-4-yl)-phenyl]-cyclopropanecarbonyl}-pyrrolidine-2-carboxylic acid (1-cyano-cyclopropyl)-amide]",3480,0.08
"CN1CCN(c2ccc(S(=O)(=O)[C@@H]3C[C@@H](C(=O)NC4(C#N)CC4)N(C(=O)C4(C(F)(F)F)CC4)C3)c(Cl)c2)CC1 [Example 290, (2S,4R)-4-[2-Chloro-4-(4-methyl-piperazin-1-yl)-benzenesulfonyl]-1-(1-trifluoromethyl-cyclopropanecarbonyl)-pyrrolidine-2-carboxylic acid (1-cyano-cyclopropyl)-amide]",1600,0.13
"CN(C)c1ccc(S(=O)(=O)[C@@H]2C[C@@H](C(=O)NC3(C#N)CC3)N(C(=O)C3(C(F)(F)F)CC3)C2)c(Cl)c1 [Example 292, (2S,4R)-4-(2-Chloro-4-dimethylamino-benzenesulfonyl)-1-(1-trifluoromethyl-cyclopropanecarbonyl)-pyrrolidine-2-carboxylic acid (1-cyano-cyclopropyl)-amide]",4130,0.157
"CC(C)N1CCN(c2ccc(S(=O)(=O)[C@@H]3C[C@@H](C(=O)NC4(C#N)CC4)N(C(=O)C4(C(F)(F)F)CC4)C3)c(Cl)c2)CC1 [Example 293, (2S,4R)-4-[2-Chloro-4-(4-isopropyl-piperazin-1-yl)-benzenesulfonyl]-1-(1-trifluoromethyl-cyclopropanecarbonyl)-pyrrolidine-2-carboxylic acid (1-cyano-cyclopropyl)-amide]",1400,0.18
"CC1(C(=O)N2C[C@H](S(=O)(=O)c3ccc(OCC(F)(F)F)cc3Cl)C[C@H]2C(=O)NC2(C#N)CC2)COC1 [Example 294, (2S,4R)-4-[2-Chloro-4-(2,2,2-trifluoro-ethoxy)-benzenesulfonyl]-1-(3-methyl-oxetane-3-carbonyl)-pyrrolidine-2-carboxylic acid (1-cyano-cyclopropyl)-amide]",7840,0.353
"N#CC1(NC(=O)[C@@H]2C[C@@H](S(=O)(=O)c3ccc(OCC(F)(F)F)cc3Cl)CN2C(=O)C2(c3ccc(F)cc3)CC2)CC1 [Example 295, (2S,4R)-4-[2-Chloro-4-(2,2,2-trifluoro-ethoxy)-benzenesulfonyl]-1-[1-(4-fluoro-phenyl)-cyclopropanecarbonyl]-pyrrolidine-2-carboxylic acid (1-cyano-cyclopropyl)-amide]",925,0.03
"CC(C)(C)N1CCN(c2ccc(S(=O)(=O)[C@@H]3C[C@@H](C(=O)NC4(C#N)CC4)N(C(=O)C4(C(F)(F)F)CC4)C3)c(Cl)c2)CC1 [Example 296, (2S,4R)-4-[4-(4-tert-Butyl-piperazin-1-yl)-2-chloro-benzenesulfonyl]-1-(1-trifluoromethyl-cyclopropanecarbonyl)-pyrrolidine-2-carboxylic acid (1-cyano-cyclopropyl)-amide]",1180,0.123
"COCCN1CCN(c2ccc(S(=O)(=O)[C@@H]3C[C@@H](C(=O)NC4(C#N)CC4)N(C(=O)C4(C(F)(F)F)CC4)C3)c(Cl)c2)CC1 [Example 297, (2S,4R)-4-{2-Chloro-4-[4-(2-methoxy-ethyl)-piperazin-1-yl]-benzenesulfonyl}-1-(1-trifluoromethyl-cyclopropanecarbonyl)-pyrrolidine-2-carboxylic acid (1-cyano-cyclopropyl)-amide]",1340,0.08
"N#CC1(NC(=O)[C@@H]2C[C@@H](S(=O)(=O)c3ccc(N4CCN(C5CC5)CC4)cc3Cl)CN2C(=O)C2(C(F)(F)F)CC2)CC1 [Example 298, (2S,4R)-4-[2-Chloro-4-(4-cyclopropyl-piperazin-1-yl)-benzenesulfonyl]-1-(1-trifluoromethyl-cyclopropanecarbonyl)-pyrrolidine-2-carboxylic acid (1-cyano-cyclopropyl)-amide]",1580,0.22
"N#CC1(NC(=O)[C@@H]2C[C@@H](S(=O)(=O)c3ccc(N4CCN5CCC[C@H]5C4)cc3Cl)CN2C(=O)C2(C(F)(F)F)CC2)CC1 [Example 299, (2S,4R)-4-((S)-2-Chloro-4-hexahydro-pyrrolo[1,2-a]pyrazin-2-yl-benzenesulfonyl)-1-(1-trifluoromethyl-cyclopropanecarbonyl)-pyrrolidine-2-carboxylic acid (1-cyano-cyclopropyl)-amide]",1180,0.17
